# According to patent EP4361137A1, “PRUNE1 INHIBITORS AND THERAPEUTIC USE THEREOF” (CEINGE Biotecnologie Avanzate Franco Salvatore s.c. a r.l., priority 2022, dated 2024):
# How the values were obtained:
# [1] = system: human and murine Prune1; assay: Immunoblotting of MATH1-Prune1/TP53-/- cells; format: cell-based; details: 10 µM, 24 hours
# Experimental: (§1) Cells for immunoblotting analysis were washed in cold PBS and lysed in cell lysis buffer [20 mM sodium phosphate (pH 7.4), 150 mM NaCl, 10% (v/v) glycerol, 1% (w/v) sodium deoxycholate, 1% (v/v) Triton X-100] supplemented with protease inhibitors (Roche). The resulting cell lysates were cleared by centrifugation at 16,200g for 10 min at room temperature, and the supernatants were re- moved and assayed for protein concentrations with the Protein Assay Dye Reagent (Bio-Rad). The cell lysates (30 µg) were resolved by SDS-polyacrylamide gel electrophoresis (SDS-PAGE) gels of different percentages, which depended on the molecular weights of the proteins of interest. The proteins were then electrophoretically transferred to polyvinylidene difluoride (PVDF) membranes (Millipore). After 1 hour in blocking solution with 5% (w/v) dry milk fat in PBS or 5% (w/v) BSA (Sigma-Aldrich) in tris-buffered saline [both of which contained 0.02% (v/v) Tween 20] (TBS-Tween), the PVDF mem- branes were incubated with the required primary antibody overnight at 4°C: anti-PRUNE1 (1:250; Ferrucci et al., 2018), or anti- β-actin (1:10,000; A5441, Sigma-Aldrich). […] The peak areas of the bands were measured on the densitometry plots, and the relative proportions (percentages) were calculated. […]
# [2] = system: J774A.1 macrophages; assay: M2-polarization of macrophages grown in conditioned media (qPCR); format: cell-based, murine; details: macrophages 48 h in conditioned media of MMTV-Prune1-Wnt1 cells treated with 10 µM
# Experimental: The effects of MMTV-Prune-1/Wnt1 cells upon treatment with LEO-AA7.5(S)T were analyzed for M2-polarization of J774A. 1 murine macrophages. Briefly 1 ×10^6 MMTV-Prune-1/Wnt1 cells were resuspended in 10 mL complete DMEM medium, plated into 10-cm-diameter plates, treated with 10 µM LEO-AA7.5(S)T or water as vehicle control, and grown at 37 °C for 24 h. Then the conditioned media were collected. One day before culture in the conditioned media, J774A.1 macrophages were plated into 10-cm-diameter plates. At the time of the culturing in conditioned media, macrophages were at 50% confluence, and after 6 h of starvation in serum-free medium, the macrophages were grown in conditioned media for 48 h. Each experimental point was carried out in triplicate. After the culturing in the conditioned media, the macrophages were washed with PBS, collected, and used for RNA extraction.
# RNA samples were extracted using TRIzol RNA Isolation Reagent (15596026, Invitrogen), according to the manufacturer instructions. […] The targets were detected with the SYBR green approach, using BrightGreen BlasTaq 2× PCR MasterMix (G895; ABM). Human ACTB was used as the housekeeping gene to normalize the quantification cycle (Cq) values of the other genes. […] Relative expression of the target genes was determined using the 2^-ΔΔCq method, as the fold increase compared with the controls. […]
# [3] = biological target: T1, Prune1 (Homo sapiens, UniProt Q86TP1); assay: Immunoblotting and densitometry of Prune1 in D425-MED cells; format: cell-based
# T1 construct: endogenous in cells; host or cells: D425-MED cells
# T1 sequence (Q86TP1 1-453): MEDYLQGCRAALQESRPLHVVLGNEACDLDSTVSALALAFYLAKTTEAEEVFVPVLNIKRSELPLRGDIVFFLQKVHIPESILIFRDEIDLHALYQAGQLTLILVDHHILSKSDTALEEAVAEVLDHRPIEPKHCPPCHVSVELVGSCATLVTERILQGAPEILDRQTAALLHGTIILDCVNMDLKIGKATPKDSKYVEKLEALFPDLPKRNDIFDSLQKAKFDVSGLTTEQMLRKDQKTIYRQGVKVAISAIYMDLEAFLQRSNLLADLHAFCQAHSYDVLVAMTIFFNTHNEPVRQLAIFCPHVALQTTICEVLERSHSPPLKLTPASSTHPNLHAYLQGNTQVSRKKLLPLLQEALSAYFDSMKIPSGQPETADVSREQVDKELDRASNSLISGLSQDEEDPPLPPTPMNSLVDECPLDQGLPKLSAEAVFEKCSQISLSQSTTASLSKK
# Experimental: (§2) D425.MED and MMTV-Prune1/Wnt1 cells were plated and treated with increasing concentrations of LEO-AA7.5(S)T for 24 hours. Water-treated cells were used as negative control for the experiments.
# as §1, with “20]” for “20] (TBS-Tween), the PVDF mem- branes were incubated with the required primary antibody overnight at 4°C: anti-PRUNE1 (1:250; Ferrucci et al., 2018), or anti- β-actin (1:10,000; A5441, Sigma-Aldrich).”
# [4] = system: Prune1; assay: Immunoblotting of Prune1 in MMTV-Prune1/Wnt1 cells; format: cell-based, human and murine; details: dose of 10 mM
# Experimental: as §2
# as §1, with “20]” for “20] (TBS-Tween), the PVDF mem- branes were incubated with the required primary antibody overnight at 4°C: anti-PRUNE1 (1:250; Ferrucci et al., 2018), or anti- β-actin (1:10,000; A5441, Sigma-Aldrich).”
structure (smiles),measurement,setting,value
"COc1ccc(CNc2ncnc(N3CCC[C@H](CO)C3)n2)cc1.Cl [LEO-AA7.5(S)T, (S)-(1-(4-((4-methoxybenzyl)amino)-1,3,5-triazin-2-yl)piperidin-3-yl)methanol HCl salt]",human and murine Prune1 levels (immunoblotting),[1],reduced human and murine Prune1 levels
same,nuclear phosphorylated SMAD2 and OTX2 (immunoblotting),[1],inhibition
same,levels of M2-polarized marker genes in macrophages,[2],decreased levels
same,"dose effective on Prune1 target inhibition/degradation in vitro, lower than AA7.1",[3]; 10 µM vs 100 µM AA7.1,10 fold
same,Prune1 protein levels,"[3]; D425-Med cells, 10 µM, 24 hours, densitometry relative to vehicle",0.6 fold
same,degradation of human and murine Prune protein,[4],enhance the degradation
